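Assay format: 96-well plates, 48-hour exposure. GI50 = concentration required for 50% inhibition of growth.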 Activity calls are given as the source filed them. No stated cut-off is given here; in the data, active = GI50 up to about 1.1 µM and inactive = higher.
Legend:
Assay in all cases: NCI tumour cell line growth inhibition, 48 h
EKVX = tested on: EKVX
SF-268 = tested on: SF-268
KM12 = tested on: KM12
PC-3 = tested on: PC-3
HCC 2998 = tested on: HCC 2998
U-251 = tested on: U-251
MDA-MB-435 = tested on: MDA-MB-435
OVCAR-3 = tested on: OVCAR-3
RXF 393 = tested on: RXF 393
NCI/ADR-RES = tested on: NCI/ADR-RES
Hs-578T = tested on: Hs-578T
HT-29 = tested on: HT-29
DU-145 = tested on: DU-145
IGROV-1 = tested on: IGROV-1
HOP-92 = tested on: HOP-92
CCRF-CEM = tested on: CCRF-CEM
SK-MEL-5 = tested on: SK-MEL-5
COLO 205 = tested on: COLO 205
Malme-3M = tested on: Malme-3M
MDA-N = tested on: MDA-N

Measured: GI50

O=c1oc2ccc3ccccc3c2cc1-c1nnc(Nc2ccccc2)s1
inactive: EKVX 46.5 µM | SF-268 61.8 µM | KM12 50.7 µM | PC-3 17.1 µM | HCC 2998 44.8 µM | U-251 7.59 µM | MDA-MB-435 78.3 µM | OVCAR-3 17.4 µM | RXF 393 15.8 µM | NCI/ADR-RES 52.5 µM | Hs-578T 65 µM | HT-29 41 µM | DU-145 24.5 µM

NNC(=O)CC(=O)Nc1ccc(S(=O)(=O)c2ccc(NC(=O)CC(=O)NN)cc2)cc1
inactive: EKVX > 100 µM | IGROV-1 > 100 µM | SF-268 > 100 µM | KM12 > 100 µM | PC-3 > 100 µM | HCC 2998 > 100 µM | HOP-92 > 100 µM | U-251 > 100 µM | CCRF-CEM > 100 µM | SK-MEL-5 > 100 µM | MDA-MB-435 > 100 µM | OVCAR-3 > 100 µM | COLO 205 > 100 µM | RXF 393 > 100 µM | NCI/ADR-RES > 100 µM | Hs-578T > 100 µM | HT-29 > 100 µM | DU-145 > 100 µM

O=S(=O)(/N=C1/S/C(=N\c2ccccc2)N(c2ccccc2)/C1=N/S(=O)(=O)c1ccccc1)c1ccccc1
inactive: EKVX 21.5 µM | IGROV-1 20.5 µM | KM12 19.4 µM | PC-3 > 10 µM | HCC 2998 20.9 µM | HOP-92 13.6 µM | U-251 22.3 µM | CCRF-CEM 28.7 µM | SK-MEL-5 16.3 µM | Malme-3M 22.5 µM | COLO 205 26.9 µM | Hs-578T 29.6 µM | MDA-N 16.6 µM | HT-29 22.8 µM

CC(N)(/C=C/c1ccccc1)C(=O)O (configuration not stated)
inactive: EKVX > 100 µM | IGROV-1 > 100 µM | SF-268 > 100 µM | KM12 > 100 µM | PC-3 > 100 µM | HOP-92 > 100 µM | U-251 > 100 µM | SK-MEL-5 > 100 µM | Malme-3M > 100 µM | MDA-MB-435 > 100 µM | OVCAR-3 > 100 µM | COLO 205 > 100 µM | NCI/ADR-RES > 100 µM | Hs-578T 67.3 µM | MDA-N > 100 µM | HT-29 > 100 µM

CC1=NN(c2nc(N)nc(CS(C)(=O)=O)n2)C(C)(C)C1
inactive: EKVX > 100 µM | IGROV-1 > 100 µM | SF-268 > 100 µM | KM12 > 100 µM | PC-3 > 100 µM | HCC 2998 > 100 µM | HOP-92 > 100 µM | U-251 > 100 µM | CCRF-CEM > 100 µM | SK-MEL-5 > 100 µM | MDA-MB-435 > 100 µM | COLO 205 > 100 µM | RXF 393 > 100 µM | NCI/ADR-RES > 100 µM | Hs-578T > 100 µM | HT-29 > 100 µM | DU-145 > 100 µM

COc1cc2c(cc1O)-c1c(cnn1-c1ccc([N+](=O)[O-])cc1)CCC2
inactive: EKVX 28.1 µM | IGROV-1 4.78 µM | SF-268 8.95 µM | KM12 12.6 µM | PC-3 10.8 µM | HOP-92 3.75 µM | U-251 11.7 µM | CCRF-CEM 2.94 µM | SK-MEL-5 13.4 µM | Malme-3M 5.82 µM | MDA-MB-435 17.4 µM | OVCAR-3 16.7 µM | COLO 205 20.3 µM | RXF 393 50.8 µM | NCI/ADR-RES 14.4 µM | Hs-578T 19.7 µM | HT-29 16.4 µM | DU-145 14.8 µM

Cc1ccc(S(=O)(=O)Nn2c(-c3ccccc3)c(C#N)c(-c3ccc([N+](=O)[O-])cc3)c(C#N)c2=O)cc1
inactive: EKVX > 100 µM | IGROV-1 70.8 µM | SF-268 > 100 µM | KM12 > 100 µM | PC-3 > 100 µM | HCC 2998 > 100 µM | HOP-92 30.1 µM | U-251 > 100 µM | CCRF-CEM 32.1 µM | SK-MEL-5 97.1 µM | Malme-3M > 100 µM | MDA-MB-435 > 100 µM | COLO 205 > 100 µM | RXF 393 > 100 µM | NCI/ADR-RES > 100 µM | Hs-578T 88.7 µM | MDA-N > 100 µM | HT-29 > 100 µM

CN1CCN(Cc2ccc(C(=S)Nc3ccccc3)s2)CC1
inactive: EKVX 65.3 µM | IGROV-1 10.4 µM | SF-268 > 100 µM | KM12 36.3 µM | PC-3 69.7 µM | HCC 2998 33.1 µM | U-251 64.7 µM | CCRF-CEM 24 µM | SK-MEL-5 17.6 µM | Malme-3M 89.5 µM | MDA-MB-435 31.9 µM | OVCAR-3 > 100 µM | COLO 205 22.3 µM | NCI/ADR-RES 32.9 µM | Hs-578T 39.2 µM | MDA-N 35.6 µM | HT-29 19.6 µM | DU-145 > 100 µM

O=Cc1c2n(c3ccccc13)N[C@@](Cc1ccc(O)cc1)(C(=O)O)C2
inactive: EKVX > 100 µM | IGROV-1 > 100 µM | SF-268 36 µM | KM12 > 100 µM | PC-3 81.7 µM | HOP-92 > 100 µM | U-251 > 100 µM | CCRF-CEM 34.5 µM | SK-MEL-5 > 100 µM | Malme-3M 60.3 µM | MDA-MB-435 > 100 µM | OVCAR-3 19.5 µM | COLO 205 > 100 µM | NCI/ADR-RES 35.9 µM | Hs-578T > 100 µM | MDA-N > 100 µM | HT-29 > 100 µM | DU-145 > 100 µM

O=C1[C@@H]2C(c3ccccc3[N+](=O)[O-])=[N+](c3ccccc3)O[C@@H]2C(=O)N1c1ccc(Cc2ccc(N3C(=O)[C@H]4C(c5ccccc5[N+](=O)[O-])=[N+](c5ccccc5)O[C@H]4C3=O)cc2)cc1
inactive: EKVX > 100 µM | IGROV-1 > 100 µM | SF-268 > 100 µM | KM12 > 100 µM | HCC 2998 > 100 µM | HOP-92 49 µM | U-251 > 100 µM | CCRF-CEM > 100 µM | SK-MEL-5 43.1 µM | Malme-3M 27.7 µM | OVCAR-3 > 100 µM | COLO 205 33.4 µM | RXF 393 > 100 µM | HT-29 > 100 µM

COC(=O)NN=C1C(C)(C)C(=O)C1(C)C
inactive: EKVX > 100 µM | IGROV-1 > 100 µM | SF-268 > 100 µM | KM12 > 100 µM | HCC 2998 > 100 µM | HOP-92 > 100 µM | U-251 > 100 µM | CCRF-CEM > 100 µM | SK-MEL-5 > 100 µM | Malme-3M > 100 µM | OVCAR-3 > 100 µM | COLO 205 > 100 µM | RXF 393 > 100 µM | HT-29 > 100 µM

Fc1cccc(F)c1C1SCc2nc3ccccc3n21 (configuration not stated) [THIAZOLOBENZIMIDAZOLE]
inactive: EKVX 64.6 µM | IGROV-1 80.9 µM | SF-268 > 100 µM | KM12 > 100 µM | HCC 2998 > 100 µM | HOP-92 28.5 µM | U-251 > 100 µM | CCRF-CEM 52.4 µM | SK-MEL-5 31.5 µM | Malme-3M 55.5 µM | OVCAR-3 47.4 µM | COLO 205 > 100 µM | RXF 393 > 100 µM | HT-29 62.7 µM

COC(=O)C1(C(=O)OC)N=C(C)OC1c1ccccn1 (configuration not stated)
inactive: EKVX > 100 µM | IGROV-1 > 100 µM | KM12 > 100 µM | PC-3 > 100 µM | HCC 2998 > 100 µM | HOP-92 > 100 µM | U-251 > 100 µM | CCRF-CEM > 100 µM | SK-MEL-5 > 100 µM | MDA-MB-435 > 100 µM | OVCAR-3 > 100 µM | COLO 205 > 100 µM | RXF 393 > 100 µM | NCI/ADR-RES > 100 µM | MDA-N > 100 µM | DU-145 > 100 µM

Cc1ccc(S(=O)(=O)NC(=O)N[C@@H](Cc2c[nH]cn2)C(=O)O)cc1
inactive: IGROV-1 > 100 µM | SF-268 > 100 µM | KM12 > 100 µM | PC-3 > 100 µM | HOP-92 > 100 µM | U-251 > 100 µM | CCRF-CEM > 100 µM | SK-MEL-5 > 100 µM | Malme-3M > 100 µM | COLO 205 > 100 µM | RXF 393 > 100 µM | NCI/ADR-RES > 100 µM | Hs-578T > 100 µM | MDA-N > 100 µM | HT-29 > 100 µM | DU-145 > 100 µM

C/C(=N/NC(N)=S)C(CN1CCOCC1)C(C1=C(O)c2ccccc2OC1)c1ccccc1 (configuration not stated)
inactive: EKVX > 100 µM | IGROV-1 > 100 µM | SF-268 41.8 µM | KM12 > 100 µM | HCC 2998 > 100 µM | HOP-92 71.3 µM | U-251 > 100 µM | CCRF-CEM 60.7 µM | SK-MEL-5 > 100 µM | Malme-3M 69 µM | OVCAR-3 > 100 µM | COLO 205 68.9 µM | RXF 393 > 100 µM | HT-29 > 100 µM | DU-145 > 100 µM

O=S(=O)(Nc1ccc2ccc3cccc4ccc1c2c34)c1ccccc1
inactive: EKVX > 100 µM | IGROV-1 18.7 µM | SF-268 43.6 µM | KM12 9.98 µM | PC-3 14.3 µM | HOP-92 4.84 µM | U-251 50.4 µM | CCRF-CEM 14.1 µM | SK-MEL-5 14.1 µM | Malme-3M 38.9 µM | MDA-MB-435 3.82 µM | OVCAR-3 8.26 µM | COLO 205 29.5 µM | RXF 393 > 100 µM | NCI/ADR-RES 35.1 µM | Hs-578T 28.1 µM | HT-29 49.2 µM | DU-145 > 100 µM

— ChEMBL document CHEMBL1201862, “PubChem BioAssay data set” (2004)
